In brackets after ≈: the same amount, converted by molar mass. Like-named read-outs stand apart in the source and are kept apart here.
What was measured:
[1] = system: Ascites lymphocitic P 388 Leukemia; assay: Ascites lymphocitic P 388 Leukemia in CDF1 mice, i.p. treatment days 1-9; format: in vivo, mouse (male CDF1); conditions: for Tumor evaluation, median survival time: control 12.1 days
[2] = system: Moloney Sarcoma Virus (MSV); assay: Formation of foci by Moloney Sarcoma Virus (MSV) in vitro (antiviral action); format: cell-based; conditions: Fibroblast, 72 h, read-out: Antiviral action ID50
Method: (§1) The test compound was evaluated on mouse embryo fibroblast (MEF) cultures infected with MSV and on similar uninfected cultures. After a treatment of three days the inhibiting doses (ID50) were evaluated on cell proliferation in uninfected cultures (cytotoxic action) and on MSV foci formation in infected cultures (antiviral action).
^b inhibition of MSV foci formation

[3] = system: Hela cells; assay: Cloning efficiency of Hela cells in vitro (colony inhibition); format: cell-based; conditions: Homo sapiens
Method: After treatment for 2, 8 and 24 hours, Hela cells were seeded (200 cells per plate) and the number of colonies determined 8 days later. The inhibiting dose (ID50) represents the does which produces a 50% inhibition of colonies.
^a cloning efficiency of Hela cells

[4] = Proliferation of uninfected mouse embryo fibroblast (MEF) cultures (cytotoxic action); format: cell-based; conditions: mouse, mouse embryo fibroblasts; uninfected MEF, three days treatment; Table 2; read-out: Cytotoxic action ID50
Method: as §1
(§2) ^c inhibition of mouse embryo fibroblasts proliferation

[5] = system: mouse embryo fibroblast (MEF) cultures; assay: as above; format: cell-based
Method: as §1, §2

COc1cccc2c1C(=O)c1c(O)c3c(c(O)c1C2=O)C[C@@](O)(C(C)=O)C[C@@H]3O[C@H]1C[C@@H](N)[C@@H](O)[C@H](C)O1 [3'-4'-epi-daunomycin, 3',4'-epi-daunomycin]
Toxicity (survivors at fifth day) ([1]; 1.56 mg/kg i.p., days 1-9): 6/6 | Tumor evaluation, T/C % ([1]; 1.56 mg/kg i.p., days 1-9): 129% | Tumor evaluation, median survival time ([1]; 1.56 mg/kg i.p., days 1-9): 15.7 days | Toxicity (survivors at fifth day) ([1]; 3.13 mg/kg i.p., days 1-9): 6/6 | Tumor evaluation, T/C % ([1]; 3.13 mg/kg i.p., days 1-9): 142% | Toxicity (survivors at fifth day) ([1]; 6.25 mg/kg i.p., days 1-9): 6/6 | Tumor evaluation, T/C % ([1]; 6.25 mg/kg i.p., days 1-9): 155% | Toxicity (survivors at fifth day) ([1]; 12.5 mg/kg i.p., days 1-9): 6/6 | Tumor evaluation, T/C % ([1]; 12.5 mg/kg i.p., days 1-9): 173% | Tumor evaluation, median survival time ([1]; 12.5 mg/kg i.p., days 1-9): 21 days | Toxicity (survivors at fifth day) ([1]; 25 mg/kg i.p., days 1-9): 6/6 | Tumor evaluation, T/C % ([1]; 25 mg/kg i.p., days 1-9): 231% | Tumor evaluation, median survival time ([1]; 25 mg/kg i.p., days 1-9): 28 days | Cures ([1]; 25 mg/kg i.p., days 1-9, evaluated day 20): 1 | anti-tumor activity in tumor bearing animals ([1]; Table 3): distinct anti-tumor activity | IC50 [2]: 0.045 µg/mL (≈ 0.0853 µM) | IC50 ([3]; 2 h, read-out: ID50 (action on Hela cells), 2 hours treatment, Table 1): 270 µg/mL (≈ 512 µM) | IC50 ([3]; 8 h, read-out: ID50 (action on Hela cells), 8 hours treatment, Table 1): 220 µg/mL (≈ 417 µM) | IC50 ([3]; 24 h, read-out: ID50 (action on Hela cells), 24 hours treatment, Table 1): 190 µg/mL (≈ 360 µM) | CC50 at 72 h [4]: 0.09 µg/mL (≈ 0.171 µM) | cytotoxic activity in vitro compared with daunomycin [5]: less cytotoxic acitivity in vitro, when compared with daunomycin

Source: US4112076A, “Epi-daunomycin and epi-adriamycin compounds and method of use” (priority 1975, dated 1978)
